# Experimental data from patent publication US20260166039A1 (SCHRÖDINGER, INC., priority 2022, published 2026).
# Molecular target: T1, Wee1 kinase domain (Homo sapiens, UniProt P30291)
# T1 construct: Wee1 kinase domain was purchased from Carna (catalog #05-177); purchased Carna 05-177
# Test: Wee1 Kinase Biochemical Assay (ADP-Glo)
# Conditions: 1 nM Wee1 enzyme, 15 uM ATP, 4 hours at 25° C
# Outline: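 The reaction mix held 1 nM Wee1 kinase domain, 15 uM ATP and 2 ng/mL Poly(Lys,Tyr 4:1) substrate and was left for 4 hours at 25 °C. ADP production was then measured with ADP-Glo, and percent inhibition was derived relative to DMSO and a saturating Wee1 inhibitor.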
# T1 sequence (P30291 299-569 limits assumed): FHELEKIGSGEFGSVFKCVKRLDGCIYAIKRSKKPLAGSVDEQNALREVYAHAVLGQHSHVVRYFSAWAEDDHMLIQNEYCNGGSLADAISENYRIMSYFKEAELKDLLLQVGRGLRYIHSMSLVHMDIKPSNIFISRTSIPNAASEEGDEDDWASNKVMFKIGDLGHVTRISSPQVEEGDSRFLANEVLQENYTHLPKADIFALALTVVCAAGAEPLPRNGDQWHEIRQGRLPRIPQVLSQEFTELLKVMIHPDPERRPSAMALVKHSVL
row,SMILES,IC50 [nM]
1,"CN1CCCC12CCN(c1ccc(Nc3ncc4c(n3)N(c3ccccn3)[C@@H]3CC(C)(C)OC[C@]43C)cc1)CC2 (single isomer, unassigned) [Example 823]",< 10
2,"CC1(C)C[C@H]2N(c3cccc(N=S(C)(C)=O)n3)c3nc(Nc4cncc(C#N)c4)ncc3[C@@]2(C)CO1 (single isomer, unassigned) [Example 818]",< 10

# Same assay, conditions: Wee1 kinase domain, 15 uM ATP, ADP-Glo
row,SMILES,IC50 [nM]
1,"CNCc1cccc(N2c3nc(Nc4ccc([C@H]5CCCO5)cc4)ncc3[C@@]3(C)COC(C)(C)C[C@@H]23)n1 (single isomer, unassigned) [Example 60]",< 10
2,"CN1CCC[C@@H]1c1ccc(Nc2ncc3c(n2)N(c2cccc(N=S(C)(C)=O)n2)[C@H]2CC(C)(C)OC[C@@]32C)cn1 (single isomer, unassigned) [Example 209]",10 to 100
3,"CC1(C)C[C@H]2N(c3cccc(N=S(C)(C)=O)n3)c3nc(Nc4cn5ccnc5cn4)ncc3[C@@]2(C)CO1 (single isomer, unassigned) [Example 382]",10 to 100
4,"CNC(=O)c1ccc(Nc2ncc3c(n2)N(c2cccc(N=S(C)(C)=O)n2)C2CC(C)(C)OCC32C)cc1F (single isomer, unassigned) [Example 118]",≥ 1000
5,"CN1CCC(c2cc(Nc3ncc4c(n3)N(c3cccc(N=S(C)(C)=O)n3)[C@H]3CC(C)(C)OC[C@@]43C)on2)CC1 (single isomer, unassigned) [Example 203]",100 to 1000
6,"CNCc1cccc(N2c3nc(Nc4ccc(C5(C)COC5)cc4)ncc3[C@]3(C)COC(C)(C)C[C@H]23)n1 (single isomer, unassigned) [Example 83]",≥ 1000
7,"CC1(C)C[C@H]2N(c3cccc(N=S(C)(C)=O)n3)c3nc(Nc4ccc5ncnn5c4)ncc3[C@@]2(C)CO1 (single isomer, unassigned) [Example 384]",< 10
8,"CC1(C)C[C@H]2N(c3cccc(N=S(C)(C)=O)n3)c3nc(Nc4ccc([C@@]5(C)CCNC5)cc4)ncc3[C@@]2(C)CO1 (single isomer, unassigned) [Example 174]",10 to 100
9,"C[C@H]1COC(=O)N1c1cccc(N2c3nc(Nc4ccc(N5C[C@H]6C[C@@H]5CN6)cc4)ncc3[C@]3(C)COC(C)(C)C[C@H]23)n1 (single isomer, unassigned) [Example 276]",10 to 100
10,"CNCc1cccc(N2c3nc(Nc4ccc(S(C)(=O)=O)cc4)ncc3[C@]3(C)COC(C)(C)C[C@H]23)n1 (single isomer, unassigned) [Example 33]",100 to 1000
11,"CN(C)C(=O)c1ccc(Nc2ncc3c(n2)N(c2cccc(N=S(C)(C)=O)n2)[C@H]2CC(C)(C)OC[C@@]32C)cc1 (single isomer, unassigned) [Example 142]",10 to 100
12,"CC1(C)C[C@@H]2N(c3cccc(N=S(C)(C)=O)n3)c3nc(Nc4ccc([C@H]5CCNC5)cc4)ncc3[C@]2(C)CO1 (single isomer, unassigned) [Example 138]",10 to 100
13,"CN1C[C@@H]2C[C@H]1CN2c1ccc(Nc2ncc3c(n2)N(c2cccc(N=S(C)(C)=O)n2)[C@H]2CC(C)(C)OC[C@@]32C)cc1F (single isomer, unassigned) [Example 179]",100 to 1000
14,"CNCc1cccc(N2c3nc(Nc4ccc([C@@H]5CC(=O)N(C)C5)cc4)ncc3[C@]3(C)COC(C)(C)C[C@H]23)n1 (single isomer, unassigned) [Example 70]",10 to 100
15,"Cc1cc(Nc2ncc3c(n2)N(c2cccc(C(C)(C)O)n2)[C@H]2CC(C)(C)OC[C@@]32C)ccc1C1CCN(C)CC1 (single isomer, unassigned) [Example 7]",10 to 100

# Same assay, conditions: class symbols; 1 nM Wee1 enzyme, 15 uM ATP, 4 hours at 25° C.
row,SMILES,IC50 [nM]
1,"CN1CC[C@H](Oc2ccc(Nc3ncc4c(n3)N(c3cccc(C(C)(C)O)n3)[C@H]3CC(C)(C)OC[C@@]43C)cc2)C1 (single isomer, unassigned) [Example 422]",10 to 100
2,"CN(C)Cc1cccc(N2c3nc(Nc4ccc(N5CCOCC5)cc4)ncc3[C@]3(C)COC(C)(C)C[C@H]23)n1 (single isomer, unassigned) [Example 524]",100 to 1000
3,"CC1(C)CC2N(c3cccc([C@@H]4COCCN4)n3)c3nc(Nc4ccc(N5CCOCC5)cc4)ncc3C2(C)CO1 (stereo in doubt) [Example 733, (4bS,8aS)-4b,7,7-trimethyl-9-(6-((R)-morpholin-3-yl)pyridin-2-yl)-N-(4-morpholinophenyl)-4b,5,7,8,8a,9-hexahydropyrano[3′,4′:4,5]pyrrolo[2,3-d]pyrimidin-2-amine]",10 to 100
4,"C[C@H]1COC(=O)N1c1cccc(N2c3nc(Nc4ccc([C@@H]5CCN(C)C5)cc4)ncc3[C@@]3(C)COCC[C@@H]23)n1 [Example 794, (S)-4-methyl-3-(6-((4bR,8aR)-4b-methyl-2-((4-((S)-1-methylpyrrolidin-3-yl)phenyl)amino)-4b,7,8,8a-tetrahydropyrano[3′,4′:4,5]pyrrolo[2,3-d]pyrimidin-9(5H)-yl)pyridin-2-yl)oxazolidin-2-one]",< 10
5,"CNCc1cccc(N2c3nc(Nc4cnn(C)c4)ncc3[C@]3(C)COC(C)(C)C[C@H]23)n1 (single isomer, unassigned) [Example 471]",100 to 1000
6,"CC1(C)C[C@H]2N(c3ccccn3)c3nc(Nc4ccc(N5CCN6CC[C@H]5C6)cc4)ncc3[C@@]2(C)CO1 [Example 809, (4bR,8aR)-N-(4-((5S)-1,4-diazabicyclo[3.2.1]octan-4-yl)phenyl)-4b,7,7-trimethyl-9-(pyridin-2-yl)-4b,5,7,8,8a,9-hexahydropyrano[3′,4′:4,5]pyrrolo[2,3-d]pyrimidin-2-amine]",< 10
7,"CN1C[C@@H]2C[C@H]1CN2c1ccc(Nc2ncc3c(n2)N(c2cccc(C(C)(C)O)n2)[C@H]2CC(C)(C)OC[C@@]32C)cc1 (single isomer, unassigned) [Example 415]",100 to 1000
8,"CNCc1cccc(N2c3nc(Nc4ccc(N5CCN(C)C(=O)C5)cc4)ncc3[C@]3(C)COC(C)(C)C[C@H]23)n1 (single isomer, unassigned) [Example 449]",10 to 100
9,"CN1CC[C@@H](Oc2ccc(Nc3ncc4c(n3)N(c3cccc(N5CCOC5=O)n3)[C@H]3CC(C)(C)OC[C@@]43C)cc2)C1 [Example 625, 3-(6-((4bS,8aS)-4b,7,7-trimethyl-2-((4-(((R)-1-methylpyrrolidin-3-yl)oxy)phenyl)amino)-4b,7,8,8a-tetrahydropyrano[3′,4′:4,5]pyrrolo[2,3-d]pyrimidin-9(5H)-yl)pyridin-2-yl)oxazolidin-2-one]",10 to 100
10,"CC1(C)C[C@@H]2N(c3cccc(C(C)(C)N)n3)c3nc(Nc4ccc(N5CCOCC5)cc4)ncc3[C@]2(C)CO1 (single isomer, unassigned) [Example 568]",10 to 100
11,"CN1C[C@H]2C[C@@H]1CN2c1ccc(Nc2ncc3c(n2)N(c2cccc(N4CCCC4=O)n2)[C@H]2CC(C)(C)OC[C@@]32C)cc1 [Example 630, 1-(6-((4bS,8aS)-4b,7,7-trimethyl-2-((4-((1R,4R)-5-methyl-2,5-diazabicyclo[2.2.1]heptan-2-yl)phenyl)amino)-4b,7,8,8a-tetrahydropyrano[3′,4′:4,5]pyrrolo[2,3-d]pyrimidin-9(5H)-yl)pyridin-2-yl)pyrrolidin-2-one]",100 to 1000
12,"CN1CC2CC1CN2c1ccc(Nc2ncc3c(n2)N(c2cccc(N=S(C)(C)=O)c2)C2CC(C)(C)OCC32C)cc1 (single isomer, unassigned) [Example 711]",100 to 1000
13,"CC1(C)C[C@@H]2N(c3ccc4c(n3)[C@@](C)(N)CC4)c3nc(Nc4ccc(N5CCOCC5)cc4)ncc3[C@]2(C)CO1 (single isomer, unassigned) [Example 566]",≥ 1000
14,"CC1(C)C[C@@H]2N(c3cccc(C(C)(C)O)n3)c3nc(Nc4ccc(O[C@H]5CCNC5)cc4)ncc3[C@]2(C)CO1 (single isomer, unassigned) [Example 420]",10 to 100
15,"CNCc1ccnc(N2c3nc(Nc4ccc(N5CCOCC5)cc4)ncc3[C@]3(C)COC(C)(C)C[C@H]23)c1 (single isomer, unassigned) [Example 548]",≥ 1000
16,"CC[C@]1(O)CCc2ccc(N3c4nc(Nc5ccc(N6C[C@@H]7C[C@H]6CN7C)cc5)ncc4[C@@]4(C)COC(C)(C)C[C@@H]34)nc21 [Example 791, (S)-7-ethyl-2-((4bR,8aR)-4b,7,7-trimethyl-2-((4-((1S,4S)-5-methyl-2,5-diazabicyclo[2.2.1]heptan-2-yl)phenyl)amino)-4b,7,8,8a-tetrahydropyrano[3′,4′:4,5]pyrrolo[2,3-d]pyrimidin-9(5H)-yl)-6,7-dihydro-5H-cyclopenta[b]pyridin-7-ol]",< 10
17,"CC1(C)C[C@@H]2N(c3cccc(N4CCCC4=O)n3)c3nc(Nc4ccc(O[C@H]5CCNC5)cc4)ncc3[C@]2(C)CO1 [Example 621, 1-(6-((4bS,8aS)-4b,7,7-trimethyl-2-((4-(((S)-pyrrolidin-3-yl)oxy)phenyl)amino)-4b,7,8,8a-tetrahydropyrano[3′,4′:4,5]pyrrolo[2,3-d]pyrimidin-9(5H)-yl)pyridin-2-yl)pyrrolidin-2-one]",100 to 1000
18,"CC1(C)C[C@H]2N(c3cccc(N=S(C)(C)=O)n3)c3nc(Nc4ccc(N5CC6(COC6)C5)cc4)ncc3[C@@]2(C)CO1 (single isomer, unassigned) [Example 508]",< 10
19,"CNCc1cccc(N2c3nc(NC(=O)[C@H]4C[C@@H]4c4ccccc4)ncc3[C@@]3(C)COC(C)(C)C[C@@H]23)n1 [Example 761, (1S,2S)-2-phenyl-N-((4bR,8aR)-4b,7,7-trimethyl-9-(6-((methylamino)methyl)pyridin-2-yl)-4b,5,7,8,8a,9-hexahydropyrano[3′,4′:4,5]pyrrolo[2,3-d]pyrimidin-2-yl)cyclopropane-1-carboxamide]",10 to 100
